The NIST ThermoML archive (doi:10.1016/j.fluid.2017.03.008)

How the values were obtained:
[1] = refractive index (Na D-line) (dimensionless); xn = mol fraction of the nth substance listed; conditions: 101.3 kPa, Liquid, Standard Abbe refractometry
[2] = xn = mol fraction of the nth substance listed; conditions: for surface tension liquid-gas: Ring tensiometer; for viscosity / mass density: 101.3 kPa, Liquid; for viscosity: Capillary tube (Ostwald / Ubbelohde) method; for mass density: Vibrating tube method

C[N+](C)(C)CCO.[Cl-] [choline chloride] + NCCO
Conditions	mass density, [2] [kg/m3]	refractive index, [1]	surface tension liquid-gas, [2] [mN/m]	viscosity, [2] [mPa·s]
298.15 K, x1 = 0.11	1062.8	1.47733	49.6	32.7
298.15 K, x1 = 0.13	1065	1.47875	49.2	37.7
298.15 K, x1 = 0.14	1069	1.48117	48.7	36.7
298.15 K, x1 = 0.16	1076.7	1.48388	48.2	48.5
308.15 K, x1 = 0.11	1055.2	1.47404	48.8	22.6
308.15 K, x1 = 0.13	1057.6	1.47541	48.5	25.5
308.15 K, x1 = 0.14	1061.7	1.47797	48	25
308.15 K, x1 = 0.16	1069.6	1.47998	47.6	28.8
318.15 K, x1 = 0.11	1047.8	1.47092	47.9	15
318.15 K, x1 = 0.13	1050.3	1.47217	47.8	13.8
318.15 K, x1 = 0.14	1054.4	1.47445	47.4	16.8
318.15 K, x1 = 0.16	1062.7	1.47623	46.9	20.1
328.15 K, x1 = 0.11	1040.4	1.46759	47.2	10.5
328.15 K, x1 = 0.13	1043	1.46908	47.1	10.1
328.15 K, x1 = 0.14	1047.2	1.47101	46.7	11.2
328.15 K, x1 = 0.16	1055.9	1.47257	46.2	13.5
338.15 K, x1 = 0.11	1033	1.46419	46.4	7.1
338.15 K, x1 = 0.13	1035.6	1.46539	46.4	7.9
338.15 K, x1 = 0.14	1039.9	1.46761	46	8.8
338.15 K, x1 = 0.16	1049	1.46842	45.6	9.8
348.15 K, x1 = 0.11	1025.6	1.46095	45.8	5.9
348.15 K, x1 = 0.13	1028.3	1.46171	45.8	6
348.15 K, x1 = 0.14	1032.6	1.46444	45.3	6.6
348.15 K, x1 = 0.16	1042	1.46421	45	7.5
358.15 K, x1 = 0.11	1018.1	1.45742	45	4.7
358.15 K, x1 = 0.13	1020.9	1.45833	44.9	5.2
358.15 K, x1 = 0.14	1025.3	1.46049	44.7	5.3
358.15 K, x1 = 0.16	1035	1.46031	44.4	5.9
